System: heartworm microfillaria
Assay: Heartworm microfillaria mortality test (Test Example 1)
Assay type: in vitro
Conditions: final concentration 100 μg/ml in culture broth; after culturing for 7 days; microfillaria collected from infected dogs
Protocol: Compound Nos. 32, 53, 54 and 55 were each dissolved in dimethyl sulfoxide to 10 mg/ml. These dimethyl sulfoxide solutions were diluted 100-fold to a final concentration of 100 μg/ml with the culture broth containing heartworm microfillaria collected from dogs infected with heartworm. The mortality rate of heartworm microfillaria was investigated after culturing for 7 days.
As a result, the mortality rate was 100% in each of the treatment groups.

Compound | mortality rate of heartworm microfillaria [%]
CCn1c(-c2c(F)cccc2F)c(-c2cc(OC)cc(OC)c2Cl)ccc1=O [Compound 32] | 100
CCn1c(-c2c(F)cccc2F)c(-c2cc(OC)ccc2Cl)ccc1=O [Compound 53, 5-(2-chloro-5-methoxyphenyl)-6-(2,6-difluorophenyl)-1-ethylpyridine-2(1H)-one] | 100
CCn1c(-c2c(F)cccc2F)c(-c2cc(OC)ccc2Cl)cc(Cl)c1=O [Compound 54, 3-chloro-5-(2-chloro-5-methoxyphenyl)-6-(2,6-difluorophenyl)-1-ethylpyridine-2(1H)-one] | 100
CCn1c(-c2c(F)cccc2F)c(-c2cc(OC)ccc2Cl)cc(Br)c1=O [Compound 55] | 100
